According to US7947854B2, “Bis-cationic compounds and use thereof” (The University of Sydney, priority 2003, dated 2011):
Values joined by “and” are separate entries in the source; they are usually repeats but may differ in a detail not shown here. Identical values can stand only once. Marks after values point to notes of the source that are not given here.

How the values were obtained:
[1] = test system: Scedosporium prolificans 1-003-040; test: In vitro antifungal activity, filamentous fungi, NCCLS M38-A; type: cell-based; conditions: Lomentospora prolificans, 1003040
Excerpt: (§1) The assay used for filamentous fungi (Aspergillus; Scedosporium; Fusarium) was that published by the National Committee for Clinical Laboratory Standards. 2002. Reference Method for Broth Dilution Antifungal Susceptibility Testing of Filamentous Fungi: Approved Standard. NCCLS document M38-A.Villanova, Pa., USA.

[2] = test system: Aspergillus terreus ATCC 03-232-378; test: as above; type: cell-based; conditions: Aspergillus terreus, ATCC03
Excerpt: as §1

[3] = test system: Scedosporium apiospermum 1-003-056; test: as above; type: cell-based; conditions: Scedosporium apiospermum, 1003056
Excerpt: as §1

[4] = test system: Aspergillus fumigatus ATCC 204 305; test: as above; type: cell-based; conditions: Aspergillus fumigatus, ATCC204
Excerpt: as §1

[5] = test system: Fusarium solani 04-132-4207; test: as above; type: cell-based; conditions: Fusarium solani, 041324207
Excerpt: as §1

[6] = test system: Aspergillus flavus ATCC 204 304; test: as above; type: cell-based; conditions: Aspergillus flavus, ATCC204
Excerpt: as §1

[7] = test system: cytosolic phospholipase B (PLB activity); test: Radiometric assay, cytosolic PLB activity; type: biochemical, Cryptococcus neoformans H99; conditions: pH 4
Procedure: (§2) Fungal isolates and media. […] Isolate H99 was kindly supplied by Dr. Gary Cox (Duke University Medical Center, Durham, N.C., USA), and subcultured onto Sabouraud dextrose agar (SDA) at 30° C.
(§3) Cellular disruption to prepare membrane and cytosolic fractions. The cell pellet from the preparation of the supernatant, above, was also frozen at −70° C. After washing twice with imidazole buffer, it was disrupted in the presence of a protease inhibitor cocktail (P 8215 for fungal and yeast cells; 4-(2-aminoethyl)benzenesulfonyl fluoride hydrochloride, 100 mM, 1,10-phenanthroline, 500 mM, pepstatin A, 2.2 mM, E-64, 1.4 mM; Sigma) in a MiniBeadbeater-8 Cell Disrupter (MBB-8; Daintree Scientific, Tasmania, Australia) for three cycles of 1 min, alternating with a 1 min cooling period on ice. The homogenate was centrifuged at 14,000 g for 15 min to obtain the membrane (pellet) and the cytosolic (supernatant) fractions.
(§4) Radiometric assay method for phospholipases. Enzyme activities were measured as described previously in a final volume of 125 μL at 37° C. For the determination of secreted PLB activity, carrier dipalmitoyl phosphatidylcholine (DPPC, final concentration 800 μM) and 1,2-di[1-^14C] palmitoyl phosphatidylcholine (20,000 dpm) were dried under nitrogen and suspended in 125 mM imidazole acetate buffer (assay buffer, pH 4.0) by sonication using a Branson 450 sonifier. The reaction time was 22 min, using 1 μg total protein and PLB activity was determined by the rate of decrease of the radiolabelled PC substrate, with appearance of the label in free fatty acid. This assay also simultaneously allows for the determination of phospholipase A, C and D activities. These activities were measured by the appearance of radiolabel from PC in Lyso PC, diacylglycerol and phosphatidic acid, respectively.
(§5) All reactions were terminated by adding 0.5 mL of chloroform:methanol (2:1 v/v). The reaction products were extracted by the method as disclosed in Bligh, E. C. and W. J. Dyer. 1959 ‘A rapid method of total lipid extraction and purification.’ Can. J. Biochem. Physiol. 37:911-917, separated by TLC and quantified as previously described. In the case of PLC activity, the TLC plates were developed in petroleum ether (BP 60-80° C.): diethyl ether: acetic acid (90:15:1, v/v/v) instead of chloroform:methanol:water (65:25:4, v/v/v).
(§6) All experiments were carried out in duplicate or triplicate. The effects of pH on the various phospholipase activities were measured using 50 mM final concentration of imidazole-acetate buffer (pH range 3-5), MES buffer (pH range 6-8) and glycine buffer (pH 9-10). Controls for non-enzymic breakdown of substrates were included at all pH values. Cations, Triton X-100 and metal chelators were made up as stock solutions in water and diluted to the final concentration in the appropriate assay buffer.
(§7) Preparation of inhibitors and use in assays. The following compounds were tested (for structures, see FIG. 2): compound 1, 1,12-bis(tributylphosphonium)dodecane dibromide (Fluka AG, Buchs, Switzerland); compound 2, 1,10-bis(tributylammonium)-decane dibromide; compound 3, 1,12-bis(tributylammonium)do-decane dibromide (both synthesised in-house); compound 4, 1,10-bis(trimethylammonium)decane dibromide [“decamethonium”] (Sigma, St. Louis Mo., USA). All compounds were prepared as stock solutions of 700 μM in assay buffer containing 5 mM EDTA, which was then diluted serially with buffer to obtain solutions of 70, 7, 0.7 and 0.07 μM. In each assay, 45 μL of these solutions was used, and the final volume of 125 μL was made up of substrate, enzyme and buffer. The radiometric assay was carried out as above.

[8] = test system: membrane-associated phospholipase B (PLB activity); test: Radiometric assay, membrane-associated PLB activity; type: biochemical, Cryptococcus neoformans H99; conditions: pH 4
Procedure: as §2, §3, §4, §5, §6, §7

| SMILES | MIC [1] | MIC [2] | MIC [3] | MIC [4] | MIC [5] | MIC [6] | % Inhibition PLB, Cytosolic Enzyme ([7]; 2.5 μM) [%] | % Inhibition PLB, Cytosolic Enzyme ([7]; 25 μM) [%] | % Inhibition PLB, Cytosolic Enzyme ([7]; 250 μM) | % Inhibition PLB, Membrane-bound Enzyme ([8]; 2.5 μM) [%] | % Inhibition PLB, Membrane-bound Enzyme ([8]; 25 μM) [%] | % Inhibition PLB, Membrane-bound Enzyme ([8]; 250 μM) [%] |
| --- | --- | --- | --- | --- | --- | --- | --- | --- | --- | --- | --- | --- |
| CCCC[N+](CCCC)(CCCC)CCCCCCCCCCCC[N+](CCCC)(CCCC)CCCC [1,12-Bis-(tributylammonium)dodecane dichloride] | 3.3 µg/mL and 5.5 µM | 3.3 µg/mL and 5.5 µM | 1.7 µg/mL and 2.8 µM | 6.7 µg/mL and 11 µM | 3.3 µg/mL and 5.5 µM | 13.4 µg/mL and 22 µM |  |  |  |  |  |  |
| CCCC[P+](CCCC)(CCCC)CCCCCCCCCCCC[P+](CCCC)(CCCC)CCCC [Compound 1, 1,12-bis(tributylphosphonium)dodecane dibromide] |  |  |  |  |  |  | 0 | 0 | 41.3* % | 0 | 0 | 0 |
